Measured values published in patent US20080293712A1, “Benzo[C][2,7]Naphtyridine Derivatives, Methods of Making Thereof and Methods of Use Thereof” (WYETH, priority 2007, published 2008).
Like-named read-outs stand apart in the source and are kept apart here.

How the values were obtained:
Format in all cases: biochemical
[1] = target: T1, PDK-1 (Homo sapiens, UniProt O15530); experiment: PDK-1 kinase inhibition ELISA assay (phosphorylation of His6-tagged SGK1 S422D by PDK-1)
T1 sequence (O15530 1-556): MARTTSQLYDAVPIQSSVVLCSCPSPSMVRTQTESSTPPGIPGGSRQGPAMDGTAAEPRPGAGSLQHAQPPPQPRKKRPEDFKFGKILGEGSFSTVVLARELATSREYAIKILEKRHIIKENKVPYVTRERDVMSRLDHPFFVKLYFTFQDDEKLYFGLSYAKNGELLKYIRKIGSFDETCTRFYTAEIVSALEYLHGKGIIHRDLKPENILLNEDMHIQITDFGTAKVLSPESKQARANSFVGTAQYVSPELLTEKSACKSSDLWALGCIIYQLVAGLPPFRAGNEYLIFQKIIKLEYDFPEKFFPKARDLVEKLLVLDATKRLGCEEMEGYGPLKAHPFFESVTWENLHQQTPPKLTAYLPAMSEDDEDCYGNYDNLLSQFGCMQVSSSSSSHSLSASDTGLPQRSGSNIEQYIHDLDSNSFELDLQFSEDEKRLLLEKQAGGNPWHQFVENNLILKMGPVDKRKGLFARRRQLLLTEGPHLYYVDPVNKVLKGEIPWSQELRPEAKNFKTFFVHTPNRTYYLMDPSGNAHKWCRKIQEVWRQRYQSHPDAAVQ

[2] = target: PKA (Homo sapiens, UniProt P17612); experiment: PKA kinase inhibition, Z'-LYTE FRET assay; details: 20 μM ATP
From the text: Z′-Lyte™ assay is an in vitro FRET-based assay that utilizes differential sensitivity of phosphorylated and non-phosphorylated peptides to proteolytic cleavage. The peptide substrate (also available from Invitrogen for each of PKA, Akt1 and S6K) is labeled with two different fluorophores, a fluorescence donor at one end of the peptide and a fluorescence acceptor at the other end of the peptide. In the primary kinase reaction, the kinase phosphorylates the peptide substrate in the presence of ATP. In the secondary reaction, a site-specific protease recognizes and cleaves non-phosphorylated peptides, but not phosphorylated peptides. Cleavage disrupts FRET between the donor and acceptor fluorophores on the peptide, whereas uncleaved phosphorylated peptides maintain FRET. Based on a formula that uses the ratio of donor emission (at 460 nm) to acceptor emission (at 535 nM) after excitation of the donor fluorophore at 400 nm, the extent of phosphorylation of the peptide substrates is calculated.

[3] = target: Akt1 (Homo sapiens, UniProt P31749); experiment: Akt1 kinase inhibition, Z'-LYTE FRET assay; details: 100 μM ATP
From the text: (§1) The ability of illustrative Benzo[c][2,7]naphthyridine Derivatives to inhibit PKA, Akt1, S6K in vitro can be determined using a Fluorescence Resonance Energy Transfer (FRET) assay, such as a Z′-LYTE™ Kinase Assay Platform, commercially available from Invitrogen (c.f. Rodems et al., ASSAY Drug Devel. Technol. 1:9-19 (2002) and Zhang et al., J. Biomol. Screen. 4:67-73 (1999)). Z′-Lyte™ assay is an in vitro FRET-based assay that utilizes differential sensitivity of phosphorylated and non-phosphorylated peptides to proteolytic cleavage. The peptide substrate (also available from Invitrogen for each of PKA, Akt1 and S6K) is labeled with two different fluorophores, a fluorescence donor at one end of the peptide and a fluorescence acceptor at the other end of the peptide. In the primary kinase reaction, the kinase phosphorylates the peptide substrate in the presence of ATP. In the secondary reaction, a site-specific protease recognizes and cleaves non-phosphorylated peptides, but not phosphorylated peptides. Cleavage disrupts FRET between the donor and acceptor fluorophores on the peptide, whereas uncleaved phosphorylated peptides maintain FRET. Based on a formula that uses the ratio of donor emission (at 460 nm) to acceptor emission (at […]) after excitation of the donor fluorophore at 400 nm, the extent of phosphorylation of the peptide substrates is calculated. IC50 values of illustrative Benzo[c][2,7]naphthyridine Derivatives, shown in Table 12, are calculated using LSW Data Analysis package add-in for Excel (Microsoft).

[4] = target: S6K (Homo sapiens, UniProt P23443); experiment: S6K kinase inhibition, Z'-LYTE FRET assay; details: 100 μM ATP
From the text: as §1

[5] = PDK-1 ELISA, Table 11, read-out: Average IC50

Sequence of Akt1 (P31749 whole entry, species assumed): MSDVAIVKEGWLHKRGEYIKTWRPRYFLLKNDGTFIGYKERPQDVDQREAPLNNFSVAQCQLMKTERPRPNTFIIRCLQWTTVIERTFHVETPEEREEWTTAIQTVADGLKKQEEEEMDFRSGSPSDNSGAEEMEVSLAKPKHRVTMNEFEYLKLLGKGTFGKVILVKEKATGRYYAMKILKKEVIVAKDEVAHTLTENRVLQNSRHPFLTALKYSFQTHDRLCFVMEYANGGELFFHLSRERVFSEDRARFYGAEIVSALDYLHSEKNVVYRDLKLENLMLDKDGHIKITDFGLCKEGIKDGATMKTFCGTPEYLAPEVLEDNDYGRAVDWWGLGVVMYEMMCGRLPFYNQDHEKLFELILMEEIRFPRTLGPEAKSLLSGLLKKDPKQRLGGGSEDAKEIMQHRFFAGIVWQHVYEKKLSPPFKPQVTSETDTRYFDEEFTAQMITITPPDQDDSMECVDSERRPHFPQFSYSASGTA
Sequence of S6K (P23443 whole entry): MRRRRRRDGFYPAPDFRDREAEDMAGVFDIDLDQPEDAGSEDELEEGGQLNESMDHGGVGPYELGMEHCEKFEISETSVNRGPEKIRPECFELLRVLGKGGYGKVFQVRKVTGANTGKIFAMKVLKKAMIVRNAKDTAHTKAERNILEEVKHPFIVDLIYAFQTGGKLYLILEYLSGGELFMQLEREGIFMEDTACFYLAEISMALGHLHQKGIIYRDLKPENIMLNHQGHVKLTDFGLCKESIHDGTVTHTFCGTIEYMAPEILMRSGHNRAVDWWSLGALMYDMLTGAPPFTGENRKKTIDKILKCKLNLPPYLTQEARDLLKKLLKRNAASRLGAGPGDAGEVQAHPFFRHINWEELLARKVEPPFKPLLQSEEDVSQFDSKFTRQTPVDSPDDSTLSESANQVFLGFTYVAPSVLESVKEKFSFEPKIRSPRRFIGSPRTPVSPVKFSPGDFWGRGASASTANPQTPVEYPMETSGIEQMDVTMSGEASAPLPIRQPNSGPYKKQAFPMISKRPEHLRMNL

| SMILES | IC50 [1, 5] | IC50 [2] | IC50 [3] | IC50 [4] | IC50 [1] |
| --- | --- | --- | --- | --- | --- |
| COc1cc2c(cc1OCCCN1CCN(C)CC1)ncc1c(N)nc(-n3ccnc3)cc12 [Ia-14, 2-(1H-imidazol-1-yl)-9-methoxy-8-(3-(4-methylpiperazin-1-yl)propoxy)benzo[c][2,7]naphthyridin-4-amine] | 356 nM | > 10000 nM | 350 nM | – | – |
| Nc1nc(-n2ccnc2)cc2c1cnc1cc(C#CCCn3ccnc3)ccc12 [Ia-30, 2-(1H-imidazol-1-yl)-8-[4-(1H-imidazol-1-yl)but-1-yn-1-yl]benzo[c]-2,7-naphthyridin-4-amine] | 179 nM | > 20000 nM | 15000 nM | – | – |
| CC(C)(C)OC(=O)N[C@H](COc1cncc(-c2cc3c(cnc4cc(Br)ccc43)c(N)n2)c1)Cc1ccccc1 [Ia-7, tert-butyl ((1S)-2-{[5-(4-amino-8-bromobenzo[c]-2,7-naphthyridin-2-yl)pyridin-3-yl]oxy}-1-benzylethyl)carbamate] | > 5000 nM | > 20000 nM | > 20000 nM | – | – |
| COc1cc2c(cc1N1CCC(N3CCCC3)CC1)ncc1c(N)nc(-c3cccnc3)cc12 [Ia-20, 9-methoxy-2-pyridin-3-yl-8-(4-pyrrolidin-1-ylpiperidin-1-yl)benzo[c]-2,7-naphthyridin-4-amine] | 893 nM | > 20000 nM | 300 nM | – | – |
| CCOc1cc2ncc3c(N)nc(-n4ccnc4)cc3c2cc1NC(C)=O [Ia-29, N-[4-amino-8-ethoxy-2-(1H-imidazol-1-yl)benzo[c]-2,7-naphthyridin-9-yl]acetamide] | 385 nM | > 5000 nM | > 5000 nM | – | – |
| COc1cc2ncc3c(N)nc(-c4cncc(OC[C@@H](C)N)c4)cc3c2cc1OC [Ib-30, 2-(5-{[(2R)-2-aminopropyl]oxy}pyridin-3-yl)-8,9-dimethoxybenzo[c]-2,7-naphthyridin-4-amine] | 2 nM | – | – | 97 nM | – |
| COc1cc2ncc3c(N)nc(-n4cnc(CO)c4)cc3c2cc1OC [Ib-69, [1-(4-Amino-8,9-dimethoxybenzo[c]-2,7-naphthyridin-2-yl)-1H-imidazol-4-yl]methanol] | 205 nM | > 20000 nM | 2800 nM | – | – |
| COc1cc2c(cc1OCCCN1CCCC1)ncc1c(N)nc(-c3cccnc3C)cc12 [Ia-9, 9-Methoxy-2-(2-methylpyridin-3-yl)-8-(3-pyrrolidin-1-ylpropoxy)benzo[c]-2,7-naphthyridin-4-amine] | 2120 nM | > 10000 nM | 4000 nM | – | – |
| COc1cc2ncc3c(N)nc(-n4ccnc4)cc3c2cc1OC [Ib-74, 2-(1H-imidazol-1-yl)-8,9-dimethoxybenzo[c]-2,7-naphthyridin-4-amine] | – | > 20000 nM | 180 nM | – | – |
| CN(C)CC#Cc1ccc2c(c1)ncc1c(N)nc(-n3ccnc3)cc12 [Ia-36, 8-[3-(Dimethylamino)prop-1-yn-1-yl]-2-(1H-imidazol-1-yl)benzo[c]-2,7-naphthyridin-4-amine] | 531 nM | – | 2000 nM | – | – |
| CCN1CCN(CCC#Cc2ccc3c(c2)ncc2c(N)nc(-n4ccnc4)cc23)CC1 [Ia-35, 8-[4-(4-ethylpiperazin-1-yl)but-1-yn-1-yl]-2-(1H-imidazol-1-yl)benzo[c]-2,7-naphthyridin-4-amine] | 493 nM | 6000 nM | 2900 nM | – | – |
| COc1cc2c(cc1N1CCC(N3CCCC3)CC1)ncc1c(N)nc(-c3cccnc3C)cc12 [Ia-19, 9-methoxy-2-(2-methylpyridin-3-yl)-8-(4-pyrrolidin-1-ylpiperidin-1-yl)benzo[c]-2,7-naphthyridin-4-amine] | > 5000 nM | > 10000 nM | – | – | – |
| CCN1CCN(CCC#Cc2ccc3ncc4c(N)nc(-n5ccnc5)cc4c3c2)CC1 [Ia-18, 9-[4-(4-Ethylpiperazin-1-yl)but-1-yn-1-yl]-2-(1H-imidazol-1-yl)benzo[c]-2,7-naphthyridin-4-amine] | > 3000 nM | > 10000 nM | > 10000 nM | – | – |
| COc1cc2c(cc1OCc1ccccc1)ncc1c(N)nc(-n3ccnc3)cc12 [Ia-34, 8-(Benzyloxy)-2-(1H-imidazol-1-yl)-9-methoxybenzo[c]-2,7-naphthyridin-4-amine] | 193 nM | > 20000 nM | 180 nM | – | – |
| CCN1CCN(CC/C=C/c2ccc3c(c2)ncc2c(N)nc(-n4ccnc4)cc23)CC1 [Ia-25, 8-[(1E)-4-(4-ethylpiperazin-1-yl)but-1-en-1-yl]-2-(1H-imidazol-1-yl)benzo[c]-2,7-naphthyridin-4-amine] | 116 nM | 1250 nM | 230 nM | – | – |
| COc1cc2c(cc1OCCCN1CCCC1)ncc1c(N)nc(-n3ccnc3)cc12 [Ia-15, 2-(1H-imidazol-1-yl)-9-methoxy-8-(3-(pyrrolidin-1-yl)propoxy)benzo[c][2,7]naphthyridin-4-amine] | 498 nM | > 10000 nM | 380 nM | – | – |
| COc1cc2c(cc1OCCCN1CCOCC1)ncc1c(N)nc(-n3ccnc3)cc12 [Ia-16, 2-(1H-imidazol-1-yl)-9-methoxy-8-(3-morpholinopropoxy)benzo[c][2,7]naphthyridin-4-amine] | 170 nM | > 10000 nM | 380 nM | – | – |
| COc1cc2c(cc1OCC1CCN(C)CC1)ncc1c(N)nc(-c3cnccn3)cc12 [Ia-32] | 754 nM | > 20000 nM | 250 nM | – | – |
| CC(C)(C)OC(=O)N[C@H](COc1cncc(-c2cc3c(cnc4cc(C#CCCn5ccnc5)ccc43)c(N)n2)c1)Cc1ccccc1 [Ia-6, tert-Butyl-{(1S)-2-[(5-{4-amino-8-[4-(1H-imidazol-1-yl)but-1-yn-1-yl]benzo[c]-2,7-naphthyridin-2-yl}pyridin-3-yl)oxy]-1-benzylethyl}carbamate] | > 5000 nM | > 20000 nM | > 20000 nM | – | – |
| COCCOc1cc2ncc3c(N)nc(-n4cnc(C)c4)cc3c2cc1OC [Ia-42, 9-Methoxy-8-(2-methoxyethoxy)-2-(4-methyl-1H-imidazol-1-yl)benzo[c]-2,7-naphthyridin-4-amine] | 108 nM | > 20000 nM | 350 nM | – | – |
| COc1cc2ncc3c(N)nc(-c4cncc(OC[C@@H](N)Cc5ccc(OCc6ccccc6)cc5)c4)cc3c2cc1OC [Ib-54, 2-[5-({(2S)-2-amino-3-[4-(benzyloxy)phenyl]propyl}oxy)pyridin-3-yl]-8,9-dimethoxybenzo[c]-2,7-naphthyridin-4-amine] | 212 nM | > 10000 nM | 3000 nM | – | – |
| CCOc1cc2ncc3c(N)nc(-c4cccnc4)cc3c2cc1OCC [Ia-46, 8,9-Diethoxy-2-pyridin-3-ylbenzo[c]-2,7-naphthyridin-4-amine] | – | > 20000 nM | 200 nM | – | 74 nM |
| COCCOc1cc2ncc3c(N)nc(-n4cnc(-c5ccccc5)c4)cc3c2cc1OC [Ia-41, 9-Methoxy-8-(2-methoxyethoxy)-2-(4-phenyl-1H-imidazol-1-yl)benzo[c]-2,7-naphthyridin-4-amine] | 2030 nM | > 20000 nM | 18000 nM | – | – |
| CCOc1cc2ncc3c(N)nc(-n4ccnc4)cc3c2cc1NC(=O)Nc1ccc(N(C)C)cc1 [Ia-27, N-[4-amino-8-ethoxy-2-(1H-imidazol-1-yl)benzo[c]-2,7-naphthyridin-9-yl]-N′-[4-(dimethylamino)phenyl]urea] | 617 nM | > 20000 nM | 16000 nM | – | – |
| COc1cc2ncc3c(N)nc(-c4cncc(Oc5ncccc5N)c4)cc3c2cc1OC [Ib-169, 2-{5-[(3-Aminopyridin-2-yl)oxy]pyridin-3-yl}-8,9-dimethoxybenzo[c][2,7]naphthyridin-4-amine] | 60 nM | – | – | – | – |
| CCOc1cc2ncc3c(N)nc(-n4ccnc4)cc3c2cc1NC(=S)NCCN1CCOCC1 [Ia-26, N-[4-amino-8-ethoxy-2-(1H-imidazol-1-yl)benzo[c]-2,7-naphthyridin-9-yl]-N′-(2-morpholin-4-ylethyl)thiourea] | 549 nM | – | – | – | – |
| COc1cc2ncc3c(N)nc(-c4cncc(OC[C@@H](N)CN5CCC[C@@H]5c5nccs5)c4)cc3c2cc1OC [Ib-102, 2-[5-({(2S)-2-amino-3-[(2R)-2-(1,3-thiazol-2-yl)pyrrolidin-1-yl]propyl}oxy)pyridin-3-yl]-8,9-dimethoxybenzo[c][2,7]naphthyridin-4-amine] | 38 nM | – | – | – | – |
